Series [1] relates to carrageenin edema of right hind limb plantar. The series can be described thus: Anti-inflammatory activity, carrageenin edema method. The series is classed as in vivo, SD-rats. The following applies: po, 10 mg/kg orally. The method, then: Anti-Inflammatory Activity
Male SD-rats (6 weeks old, CLEA Japan) were used (1 group, n=6). The Carrageenin edema method was performed according to the method of Winter et. al., (Proc. Soc. Exp. Biol. Med., vol. 111, p. 544-547, 1962). After the volume of right hind limb plantar of the rat was determined, a sample was orally administered (1.0 mL, b.w.), and immediately water was orally administered in an amount of 5 mL/rat. Meanwhile, only the solvent of the sample was orally administered to rats in control. After 1 hour, a solution of 1% carrageenin in saline (0.05 mL) was injected into the right hind limb plantar subcutaneously to induce edema. After 2 and 3 hours later from the injection, volumes of the right hind limb plantar were determined. The repression rate (%) of the sample was calculated by comparing the difference of the volumes of the plantar before the carrageenin shot and 2 and 3 hours after the shot between the sample groups and the control groups.

Series [2] concerns yeast-induced pyrexia. The series can be described thus: Antipyretic activity in yeast-induced pyrexia. The series is classed as in vivo, SD rats. The settings on record: 10 mg/kg orally; maximum difference in body temperature vs control over 6 hours. The method, then:
Antipyretic Activity in Yeast-Induced Pyrexia Antipyretic activity was determined using male SD origin male-rats (7 weeks old, CLEA Japan, 1 group: n=6), according to the method of winter et. al. (J. Pharmacol. Exp. Ther., vol. 138, p. 405, 1963). Before 16 hours from measurement of body temperature, a suspension of 15% yeast in saline was injected subcutaneously (10 mL/kg, b.w.) into the rats to induce fever, and simultaneously supply of food was terminated while water was made available all the time. Each of the rats was raised separately. After 16 hours from the yeast shot, a thermistor terminal was inserted at an about 4 cm depth into rectum every hour, and the body temperatures after 30 seconds were recorded. After 18 hours, rats developing fevers consistently were selected, and a sample was orally administered to the rats (5 mL/kg, b.w.), while to the control, only the solvent was administered. After the administration, body temperatures were measured every hour for a period of 6 hours, and the maximum difference in body temperature between the rats in the sample group and in the control group were determined as Δ (° C.).

Series [3] relates to adjuvant arthritis. Kind of series: Anti-adjuvant-arthritic activity. Format: in vivo, SD rats. The settings on record: 10 mg/kg orally once a day for 14 days; volume of left hind limb (not injected); day of reading not given. The procedure:
Anti-Adjuvant-Arthritic Activity
Male SD origin male-rats (6 weeks old, CLEA Japan, 1 group: n=7) were used. The adjuvant arthritis method was conducted according to the method of Newbould B. B. et. al., (Brit. J. Pharmacol. Chemother., vol. 21, p. 127, 1963). Complete Freund's adjuvant (a suspension of killed tubercule bacillus in liquid paraffin at a concentration of 0.5%, 0.05 mL) was injected into the right hind limb footpad intracutaneouly to induce multiple arthritis. Samples were administered orally (10 mg/kg, b.w.), once a day for 14 days from the day before the injection day 0 to day 13. Volume of the left hind limb (not injected) was determined by the foot-volume measurement apparatus manufactured by Ugo Basile, on the day just before the adjuvant shot (Day 0), Day 10 and Day 14, and repression rate (%) was calculated comparing the values between the sample group and the control group.

Series [4] deals with acetic acid induced rising and stretching. Kind of series: Analgesic activity, acetic acid rising method. The series is classed as in vivo, ICR-mice. The settings on record: po, 20 min; 10 mg/kg orally, 30 minutes before 0.6% acetic acid i.p.; number of rising and stretching in 20 minutes; read-out: Repression rate (%) Dosage 10 mg/kg. The method, then:
Analgesic Activity Acetic Acid Rising Method Male ICR-mice (5 weeks old, CLEA Japan) were used (1 group, n=10), and a sample was orally administered (0.2 mL/10 g, b.w.). After 30 minutes, 0.6% acetic acid solution was injected to mice intraperitoneally (0.1 mL/10 g, b.w.), and the mice were immediately transferred into an observation cage made of a transparent acrylic resin. The number of rising and stretching during the following period of 20 minutes was counted. The repression rate (%) was calculated by comparing the average numbers between the sample groups and the control groups.

In series [5] the test system is gastric mucosa. The series can be described thus: Disorder of gastric mucosa. The settings on record: stomach, 1000 mg/kg orally, fasted rats, 6 hours after dosing. Format: in vivo, SD rats. The procedure: Disorder of Gastric Mucosa
Male SD origin male-rats (7 weeks old, CLEA Japan) were used. After 24 hours from the termination of food supply, samples were orally administered (5 mL/kg, b.w.). After 5.5 hours, Evan's Blue (0.5% Evan's Blue/saline) was injected intravenously (1 mL/rat) under no anesthesia. After 30 minutes from the shot, the stomach (with esophagus and duodenum of 1.5 to 2 cm length) was removed by celiotomy, and subsequently, the esophagus terminal was closed with a clip, and a 8 mL of 1% formalin solution was injected into the stomach through the duodenum, which was also closed with a clip after the injection. The stomach was left contacting with the 1% formalin solution for more than 10 minutes, and subsequently cut open from duodenum along the greater curvature of stomach. The stomach was washed and spread on a filter paper, and the length of each of the spots dyed by Evan's Blue (hemorrhagic portion: mucosal ablation to ulcer) was measured under a stereomicroscope, and the total length (mm) was calculated by a counter and recorded.

For series [6], the target named is T1, human COX-1 (Homo sapiens, UniProt P23219).
T1 construct: made in house; host or cells: Sf-21 insect cells (recombinant baculovirus BAC-COX1, pFASTBAC1); microsome fraction
Kind of series: Determination of COX-1 inhibitory activity (microsome fraction, chemiluminescence). The series is classed as biochemical. The following applies: microsome fraction 40 μg, arachidonic acid, 37° C. 25 minutes preincubation; read-out: Repression rate IC50 (μM) COX-1. The method, then: A 1.8 kb DNA fragment containing human COX-1 cDNA (FASEB J., vol. 5 (9), p. 2304-2312 (1991)) prepared by the PCR method was inserted into plasmid pFASTBAC1 (CIBCOBRL) to obtain a plasmid pFBCOX1.
Using the plasmid pFBCOX1 and BAC-TO-BAC Baculovirus Expression System (GIBCOBRL), a virus stock BAC-COX1 of the recombinant baculovirus was prepared.
Sf-21 cells were inoculated in 125 mL of Sf-900 II SFM medium (GIBCOBRL) at a concentration of 1×10^6 cells/mL, and the medium was incubated at 27° C. for 24 hours. 0.75 mL of the virus stock BAC-COX1 of the recombinant baculovirus was added thereto, and the mixture was incubated further for 72 hours. The cells were separated from the medium by centrifugation (3000 rpm, 10 min), and washed with PBS twice. The cells were suspended in 10 mL of a Lysis buffer (0.1M Tris-HCl (pH 7.4), 5 mM EDTA), and were treated with a homogenizer (POLYTRON) three times at 20000 rpm for 20 seconds so that the cells were crushed. The supernatant obtained after centrifugation (2000 rpm, 10 minutes) was further centrifuged (40000 rpm, 45 minutes) to give a precipitate, which was resuspended in a Lysis buffer (0.1M Tris-HCl (pH 7.4), 5 mM EDTA), and the suspension was stored at −80° C.
(§1) Determination of COX-1 and COX-2 Inhibitory Activities
(§2) To a mixture of 20 μL of a reaction buffer previously concentrated 10 times (1M Tris-HCl (pH8.0), 50 mM EDTA, 1.0% Tween 20, 50 mM luminol, 100 μM hematin), 20 μL of the microsome fractions (COX-1: 40 μg, COX-2: 20 μg), and 55 μL of distilled water, a sample compound dissolved in DMF (5 μL) was added, and the mixture was left at 37° C. for 25 minutes. The reaction was started by the addition of 20 μM arachidonic acid (100 μL), and chemiluminescence amount during the 10-second period after the addition of arachidonic acid was determined by the use of Lumistar (BMG Lab technologies, GmbH). The inhibition rate was calculated, regarding that the enzyme activity when DMF ([…]) was added was 100%, and the enzyme activity when 4 mM flurbiprofen (5 μL) was added was 0%.

Series [7] has as its target T2, human COX-2 (Homo sapiens, UniProt P35354).
T2 construct: made in house; host or cells: Sf-21 insect cells (recombinant baculovirus BAC-COX2, pFASTBAC1); microsome fraction
T2 sequence (P35354 18-604): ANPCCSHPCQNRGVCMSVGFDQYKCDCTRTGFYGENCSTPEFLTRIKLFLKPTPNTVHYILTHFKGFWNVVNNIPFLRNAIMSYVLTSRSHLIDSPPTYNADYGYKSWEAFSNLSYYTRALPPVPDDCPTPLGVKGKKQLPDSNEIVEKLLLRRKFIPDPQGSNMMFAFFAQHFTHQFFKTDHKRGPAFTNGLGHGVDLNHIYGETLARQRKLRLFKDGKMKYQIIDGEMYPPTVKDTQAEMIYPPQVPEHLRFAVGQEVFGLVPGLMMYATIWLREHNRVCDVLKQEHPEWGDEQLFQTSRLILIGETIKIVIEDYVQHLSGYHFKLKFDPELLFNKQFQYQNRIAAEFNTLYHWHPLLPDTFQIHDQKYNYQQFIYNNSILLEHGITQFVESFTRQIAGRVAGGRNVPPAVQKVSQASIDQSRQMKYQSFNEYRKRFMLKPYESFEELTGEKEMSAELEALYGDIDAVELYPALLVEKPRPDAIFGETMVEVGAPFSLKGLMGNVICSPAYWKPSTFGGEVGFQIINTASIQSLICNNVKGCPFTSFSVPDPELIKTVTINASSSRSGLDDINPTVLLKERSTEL
Kind of series: Determination of COX-2 inhibitory activity (microsome fraction, chemiluminescence). Format: biochemical. The settings on record: microsome fraction 20 μg, arachidonic acid, 37° C. 25 minutes preincubation; read-out: Repression rate IC50 (μM) COX-2. The procedure: A 1.8 kb DNA fragment containing human COX-2 cDNA (Proc. Natl. Acad. Sci. U.S.A., vol. 89 (16), p. 7384-7388 (1992)) prepared by the PCR method was inserted into plasmid pFASTBAC1 (CIBCOBRAL) to obtain a plasmid pFBCOX2.
Using the plasmid pFBCOX2 and BAC-TO-BAC Baculovirus Expression System (GIBCOBRAL), a virus stock BAC-COX2 of the recombinant baculovirus was prepared.
Sf-21 cells were inoculated in 125 mL of LSf-900 II SFM medium (GIBCOBRAL) at a concentration of 1×10^6 cells/mL, and the medium was incubated at 27° C. for 24 hours. 0.75 mL of the virus stock BAC-COX2 of the recombinant baculovirus was added thereto, and was incubated further for 72 hours. The cells were separated from the medium by centrifugation (3000 rpm, 10 min), and washed with PBS twice. The cells were suspended in 10 mL of a Lysis buffer (0.1M Tris-HCl (pH 7.4), 5 mM EDTA), and were treated with a homogenizer (POLYTRON), three times at 20000 rpm for 20 seconds so that the cells were crushed. The supernatant thus obtained after centrifugation (2000 rpm, 10 minutes) was further centrifuged (40000 rpm, 45 minutes) to obtain a precipitate, which was resuspended in a Lysis buffer (0.1M Tris-HCl (pH 7.4), 5 mM EDTA), and the suspension was stored at −80° C.
as §1, §2

In series [8] the test system is mucosa of small intestine. The series can be described thus: Disorder of mucosa of small intestine. Format: in vivo, SD rats. The settings on record: 300 mg/kg orally, freely fed rats, 6 hours after dosing. The procedure: Disorder of Mucosa of Small Intestine Male SD origin male-rats (7 weeks old, CLEA Japan) were used. To the rats freely fed, samples were administered orally (5 mL/kg, b.w.). After 5.5 hours from the administration, Evan's Blue (0.5% Evan's Blue/saline) was injected (1 mL/rat) intravenously under no anesthesia. After 30 minutes from the shot, the intestine was removed by celiotomy and the area thereof facing mesentery was cut open. After removal of intestinal content, the spots in the intestine dyed by Evan's Blue were measured under a stereomicroscope, and the total length (mm) of the spots was determined by a counter and recorded.

Each structure is given as a SMILES string. Read-outs that look alike come from different tables or passages of the source. Marks after values point to notes of the source that are not given here.

T1 sequence (P23219 24-599): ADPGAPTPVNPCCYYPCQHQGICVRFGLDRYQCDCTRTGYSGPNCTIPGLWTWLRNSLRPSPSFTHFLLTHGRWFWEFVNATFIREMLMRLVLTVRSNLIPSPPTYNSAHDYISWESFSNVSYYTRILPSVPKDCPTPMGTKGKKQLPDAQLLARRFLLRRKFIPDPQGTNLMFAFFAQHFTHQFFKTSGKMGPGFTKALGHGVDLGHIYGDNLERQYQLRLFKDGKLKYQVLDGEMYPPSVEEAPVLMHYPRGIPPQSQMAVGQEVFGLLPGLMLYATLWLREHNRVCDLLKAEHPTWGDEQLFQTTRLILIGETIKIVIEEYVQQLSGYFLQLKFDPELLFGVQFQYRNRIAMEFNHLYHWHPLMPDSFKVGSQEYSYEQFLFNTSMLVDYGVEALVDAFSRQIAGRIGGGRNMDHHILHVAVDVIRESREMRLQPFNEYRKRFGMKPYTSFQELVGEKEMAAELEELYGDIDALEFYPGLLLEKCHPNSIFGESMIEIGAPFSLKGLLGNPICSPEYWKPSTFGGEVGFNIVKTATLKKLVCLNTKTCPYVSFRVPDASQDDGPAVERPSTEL

Turning to `Cc1nn(-c2ccccn2)c2[nH]c3cc(F)c(F)cc3c(=O)c12` [Example 2-91, 6,7-Difluoro-3-methyl-1-(2-pyridinyl)-1,9-dihydro-4H-pyrazolo[3,4-b]quinolin-4-one], the melting point (usually the temperature of the solid-liquid transition) lay within 274 to 277 °C. Moreover, in [1] (2 hr after carrageenin injection, read-out: Repression rate (%) Dosage 10 mg/kg 2 hr later), the inhibition in vivo at 10 mg/kg stood at 51%. Besides, the inhibition in vivo at 10 mg/kg in series [1] (3 hr after carrageenin injection, read-out: Repression rate (%) Dosage 10 mg/kg 3 hr later) stood at 42%. Besides, the “Δ (° C.) Dosage 10 mg/kg” value in series [2] is 1.5** ° C. For the same molecule, the “Repression rate (%) Dosage 10 mg/kg” value in series [3] is listed as 76** %. In addition, the inhibition in vivo at 10 mg/kg in series [4] was 65%. Besides, the “Total length of dyed spots (mm)” value in [5] is listed as 0 (1000 mg/kg) mm.

Regarding `Cc1nn(-c2ccccn2)c2[nH]c3cc(F)c(F)cc3c(=O)c12.O` [Example 2-92, 6,7-Difluoro-3-methyl-1-(2-pyridinyl)-1,9-dihydro-4H-pyrazolo[3,4-b]quinolin-4-one monohydrate], the IC50 (as a rule, the concentration that gives 50% inhibition) came out at 0.677 µM in series [6] and 0.465 µM in series [7]. The results for the “Total length of dyed spots (mm)” value in [8] and in series [5] were 0 (300 mg/kg) mm and 0 (1000 mg/kg) mm, respectively.

The values above are taken from patent US6949648B2, “Condensed pyrazole derivatives, process for producing the same and use thereof” (Takeda Pharmaceutical Company Limited, priority 2000, dated 2005).
